US20210087217A1, “NUCLEOTIDE HEMI-SULFATE SALT FOR THE TREATMENT OF HEPATITIS C VIRUS” (Atea Pharmaceuticals, Inc., priority 2017, published 2021)
“Also recorded” adds a separate entry of the source. Structures can show the parent of a compound that is named as a salt. Where two headings read alike, the source gives them in different places.

Assays:
[1] = Storage of Compound 1 forms and amorphous salts at 25° C./60% RH for 14 days (HPLC, XRPD, observation); settings: for Physical/chemical stability and appearance on storage: 25° C./60% RH, 14 days
Experimental: This initial characterization was followed by storage at 25° C./60% relative humidity (RH) for 14 days with analysis by […] and XRPD after 7 and 14 days. FIG. 4A is the XRPD after 14 days at 25° C./60% (RH).
The samples were then frozen with the solvent removed by lyophilization.
The samples were then subjected to storage at 25° C./60% relative humidity (RH) for 14 days with analysis by HPLC and XRPD after 7 (FIG. 4B) and 14 days (FIG. 5A).

[2] = biological target: human mitochondrial RNA-dependent RNA polymerase (POLRMT) (Homo sapiens, UniProt O00411); assay: Incorporation of nucleotide analog triphosphates by human mitochondrial RNA polymerase; assay type: biochemical
Chain of human mitochondrial RNA-dependent RNA polymerase (POLRMT) (O00411 42-1230): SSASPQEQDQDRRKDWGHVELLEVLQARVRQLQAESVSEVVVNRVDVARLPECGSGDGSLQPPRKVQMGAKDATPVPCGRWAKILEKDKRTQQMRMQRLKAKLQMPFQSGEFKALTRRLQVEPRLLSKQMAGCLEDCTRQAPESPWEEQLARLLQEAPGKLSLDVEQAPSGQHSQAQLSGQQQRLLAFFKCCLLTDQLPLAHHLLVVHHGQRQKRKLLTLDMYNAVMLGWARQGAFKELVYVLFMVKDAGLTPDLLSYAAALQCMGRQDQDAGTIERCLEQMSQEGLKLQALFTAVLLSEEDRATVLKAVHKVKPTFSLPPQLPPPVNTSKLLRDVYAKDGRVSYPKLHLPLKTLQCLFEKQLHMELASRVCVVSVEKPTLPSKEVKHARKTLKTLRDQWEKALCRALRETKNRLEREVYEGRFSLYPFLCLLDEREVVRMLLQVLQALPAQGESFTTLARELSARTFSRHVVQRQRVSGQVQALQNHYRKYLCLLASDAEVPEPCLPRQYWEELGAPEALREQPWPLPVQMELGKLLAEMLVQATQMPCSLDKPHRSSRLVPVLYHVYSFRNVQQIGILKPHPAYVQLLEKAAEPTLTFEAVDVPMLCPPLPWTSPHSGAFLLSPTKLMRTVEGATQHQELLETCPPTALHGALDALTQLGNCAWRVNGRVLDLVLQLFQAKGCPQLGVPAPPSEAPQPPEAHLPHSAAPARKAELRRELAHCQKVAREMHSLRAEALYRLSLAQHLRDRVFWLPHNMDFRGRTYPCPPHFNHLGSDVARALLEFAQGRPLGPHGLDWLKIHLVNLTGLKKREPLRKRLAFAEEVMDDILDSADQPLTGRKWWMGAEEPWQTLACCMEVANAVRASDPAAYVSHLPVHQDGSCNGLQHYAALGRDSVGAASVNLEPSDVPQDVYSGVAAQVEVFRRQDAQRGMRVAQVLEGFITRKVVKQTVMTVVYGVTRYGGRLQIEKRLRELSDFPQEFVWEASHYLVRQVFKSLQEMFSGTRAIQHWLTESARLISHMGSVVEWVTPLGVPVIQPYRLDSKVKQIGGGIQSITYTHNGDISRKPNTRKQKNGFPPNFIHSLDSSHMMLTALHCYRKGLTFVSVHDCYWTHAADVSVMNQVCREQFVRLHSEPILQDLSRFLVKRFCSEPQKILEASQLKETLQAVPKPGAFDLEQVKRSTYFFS
Experimental: The incorporation of these analogs by human mitochondrial RNA-dependent RNA polymerase (POLRMT) were determined according to Arnold et al. (Sensitivity of Mitochondrial Transcription and Resistance of RNA Polymerase II Dependent Nuclear Transcription to Antiviral Ribonucleotides. PLoS Pathog., 2012, 8, e1003030).

[3] = Single ascending dose study of Compound 2 in GT1-HCV infected patients (Part B): safety, tolerability, pharmacokinetic; assay type: in vivo, human; settings: human; for Cmax / AUC / half-life / Tmax: in vivo; for Cmax / AUC / half-life / concentration at 24 h: GT1-HCV infected patients, mean±SD; for concentration at 24 h: plasma, oral, read-out: C24h
Experimental: Subjects in Part B received a single dose of Compound 2 in the fasting state. Patients were confined to the clinic from Day −1 to Day 6.
Part B was initiated after the safety (through Day 5) and plasma pharmacokinetic (through 24 h) data review from Cohort 3a in Part A. Available safety data (through Day 5) and pharmacokinetic data (through 24 h) was reviewed for the first cohort in Part B (Cohort 1b) before enrolling subsequent Part B cohorts. Subsequent Part B cohorts were only dosed following review of available safety and pharmacokinetic data from the respective doses in Part A as well as available safety (through Day 5) from the prior Part B cohorts.
Patients infected with HCV were treatment-naïve, non-cirrhotic GT1-infected subjects with a viral load of ≥5 log10 IU/mL.
(§1) Pharmacokinetic of Compound 1 and nucleoside metabolite 1-7 were measured following the single dose of Compound 2. […] Values are reported as mean±SD, except or Tmax where median (range) is reported.
Plasma exposure of Compound 1 was dose-related while exposure of metabolite 1-7 was dose-proportional.

[4] = Plasma profiles of Compound 2 metabolites in rats; settings: male, Sprague-Dawley, rat, plasma, po, 500 mg/kg
Experimental: The results for a single 500 mg/kg dose in rats is shown in FIG. 17 and the results for a single 30, 100, or 300 mg/kg dose in monkeys is shown in FIG. 18.

[5] = Single ascending dose study of Compound 2 in healthy volunteers (Part A): safety, tolerability, pharmacokinetic; assay type: in vivo, human; settings: both sexes, human, plasma, oral; for concentration at 24 h: read-out: C24h
Experimental: Compound 2 was tested in a single ascending dose (SAD) study to measure its safety, tolerability, and pharmacokinetic in healthy subjects (Part A). Part A was a randomized, double-blind, placebo-controlled SAD study. Healthy subjects in Part A received a single dose of Compound 2 or placebo in the fasting state. Subjects were confined to the clinic from Day −1 to Day 6.
Dosing in each cohort was staggered such that 2 subjects (1 active:1 placebo) were evaluated for 48 hours after dosing before the remainder of the cohort was dosed. Each cohort received Compound 2 in ascending order. Dosing of sequential cohorts occurred based on review of available safety data (through Day 5) and plasma pharmacokinetic data (through 24 h) of the prior cohort.
As pharmacokinetic and safety data emerged from prior cohorts, doses evaluated in Cohorts 3a-4a were adjusted by increments no more than 100 mg.
Healthy volunteers in the Part A portion of the study were male and female subjects between the ages of 18 and 65. Active and placebo recipients were pooled within each Part A cohort to preserve the study blind.
as §1

[6] = Plasma profiles of Compound 2 metabolites in monkeys; assay type: in vivo, cynomolgus monkeys; settings: cynomolgus monkey, plasma, po
[7] = incorporation by human mitochondrial RNA polymerase
[8] = 100 mg, Compound 2 100 mg, based on 24-hr profile
[9] = 300 mg, Compound 2 300 mg (first 300 mg line)
[10] = 300 mg, Compound 2 300 mg (first 300 mg line), based on 24-hr profile
[11] = 300 mg, Compound 2 300 mg (second 300 mg line)

CNc1nc(N)nc2c1ncn2[C@@H]1O[C@H](CO[P@@](=O)(N[C@@H](C)C(=O)OC(C)C)Oc2ccccc2)[C@@H](O)[C@@]1(C)F [Compound 5]
Hygroscopicity ([1]; listed as HCl salt): more hydroscopic than the hemisulfate salt

CC1(F)C(O)C(COP(=O)(O)OP(=O)(O)OP(=O)(O)O)OC1n1ccc(=O)[nH]c1=O (stereo not shown) [2’-deoxy-2’-F-2’-C-methyl UTP]
Kpol [2, 7]: 0.00034 s⁻¹

CNc1nc(N)nc2c1ncn2[C@@H]1O[C@H](CO[P@@](=O)(N[C@@H](C)C(=O)OC(C)C)Oc2ccccc2)[C@@H](O)[C@@]1(C)F [Sample 1-2]
HPLC purity ([1]; 0 days at 25° C./60% RH): 99.1
Observation ([1]; 0 days at 25° C./60% RH): White solid
Physical/chemical stability and appearance on storage [1]: stable
HPLC purity ([1]; 7 days at 25° C./60% RH): 99.2
Observation ([1]; 7 days at 25° C./60% RH): White solid
HPLC purity ([1]; 14 days at 25° C./60% RH): 99.0
Observation ([1]; 14 days at 25° C./60% RH): White solid

CNc1nc(N)nc2c1ncn2[C@@H]1O[C@H](CO[P@@](=O)(N[C@@H](C)C(=O)OC(C)C)Oc2ccccc2)[C@@H](O)[C@@]1(C)F [Sample 1-3]
HPLC purity ([1]; 0 days at 25° C./60% RH): 99.7
Observation ([1]; 0 days at 25° C./60% RH): White solid
HPLC purity ([1]; 7 days at 25° C./60% RH): 99.6
Observation ([1]; 7 days at 25° C./60% RH): White solid
HPLC purity ([1]; 14 days at 25° C./60% RH): 99.4
Observation ([1]; 14 days at 25° C./60% RH): White solid

CNc1nc(N)nc2c1ncn2[C@@H]1O[C@H](CO[P@@](=O)(N[C@@H](C)C(=O)OC(C)C)Oc2ccccc2)[C@@H](O)[C@@]1(C)F [Compound 3, mono-sulfate salt of isopropyl((S)-(((2R,3R,4R,5R)-5-(2-amino-6-(methylamino)-9H-purin-9-yl)-4-fluoro-3-hydroxy-4-methyltetrahydrofuran-2-yl)methoxy)(phenoxy)phosphoryl)-L-alaninate]
Physical/chemical stability and appearance on storage [1]: unstable; also recorded: not physically stable

CNc1nc(N)nc2c1ncn2C1OC(COP(=O)(NC(C)C(=O)OC(C)C)Oc2ccccc2)C(O)C1(C)F.Cl (stereo not shown) [Sample 1-4]
Hygroscopicity [1]: hygroscopic
HPLC purity ([1]; 0 days at 25° C./60% RH): 98.7
Observation ([1]; 0 days at 25° C./60% RH): White solid
Physical/chemical stability and appearance on storage [1]: physically and chemically stable
HPLC purity ([1]; 7 days at 25° C./60% RH): 98.8
Observation ([1]; 7 days at 25° C./60% RH): White solid
HPLC purity ([1]; 14 days at 25° C./60% RH): 98.6
Observation ([1]; 14 days at 25° C./60% RH): White solid

C[C@@]1(O)[C@H](O)[C@@H](COP(=O)(O)OP(=O)(O)OP(=O)(O)O)O[C@H]1n1cnc2c(=O)[nH]c(N)nc21 [2'-C-methyl GTP]
Kpol [2, 7]: 0.051 s⁻¹

CNc1nc(N)nc2c1ncn2[C@@H]1O[C@H](CO[P@@](=O)(N[C@@H](C)C(=O)OC(C)C)Oc2ccccc2)[C@@H](O)[C@@]1(C)F [Sample 1-1]
HPLC purity ([1]; 0 days at 25° C./60% RH): 98.6
Observation ([1]; 0 days at 25° C./60% RH): White solid
Physical/chemical stability and appearance on storage [1]: stable
HPLC purity ([1]; 7 days at 25° C./60% RH): 98.7
Observation ([1]; 7 days at 25° C./60% RH): White solid
HPLC purity ([1]; 14 days at 25° C./60% RH): 98.5
Observation ([1]; 14 days at 25° C./60% RH): White solid

CNc1nc(N)nc2c1ncn2C1OC(COP(=O)(NC(C)C(=O)OC(C)C)Oc2ccccc2)C(O)C1(C)F.CNc1nc(N)nc2c1ncn2C1OC(COP(=O)(NC(C)C(=O)OC(C)C)Oc2ccccc2)C(O)C1(C)F.O=S(=O)(O)O (stereo not shown) [Sample 1-9]
HPLC purity ([1]; 0 days at 25° C./60% RH): 98.7
Observation ([1]; 0 days at 25° C./60% RH): White solid
Physical/chemical stability and appearance on storage [1]: physically and chemically stable
HPLC purity ([1]; 7 days at 25° C./60% RH): 98.1
Observation ([1]; 7 days at 25° C./60% RH): White solid
HPLC purity ([1]; 14 days at 25° C./60% RH): 96.4
Observation ([1]; 14 days at 25° C./60% RH): White solid

CNc1nc(N)nc2c1ncn2C1OC(COP(=O)(NC(C)C(=O)OC(C)C)Oc2ccccc2)C(O)C1(C)F.O=S(=O)(O)O (stereo not shown) [Sample 1-5]
HPLC purity ([1]; 0 days at 25° C./60% RH): 98.4
Observation ([1]; 0 days at 25° C./60% RH): White solid
Physical/chemical stability and appearance on storage [1]: physically unstable
HPLC purity ([1]; 7 days at 25° C./60% RH): 55.7
Observation ([1]; 7 days at 25° C./60% RH): Sticky white
Observation ([1]; 14 days at 25° C./60% RH): Sticky gum

C[C@@]1(F)[C@H](O)[C@@H](CO)O[C@H]1n1cnc2c(=O)[nH]c(N)nc21 [Metabolite 1-7, 2-amino-9-((2R,3R,4R,5R)-3-fluoro-4-hydroxy-5-(hydroxymethyl)-3-methyltetrahydrofuran-2-yl)-1,9-dihydro-6H-purin-6-one]
Cmax ([3]; 100 mg, Compound 2 100 mg): 50.2 ± 15.4 ng/mL
AUC [3, 8]: 538 ± 103 ng·h/mL
half-life [3, 8]: 504 ± 258 min
Tmax ([3]; 100 mg, Tmax): 6 h
Tmax ([3]; 300 mg): 4.0 (3.0-6.0) h
Cmax [3, 9]: 96.9 ± 38.9 ng/mL
AUC [3, 10]: 1130 ± 273 ng·h/mL
half-life [3, 10]: 486 ± 144 min
AUC [3, 11]: 1420 ± 221 ng·h/mL
Cmax [3, 11]: 123 ± 16.6 ng/mL
Tmax ([3]; 300 mg, Tmax): 6 h
AUC ([3]; 400 mg, Compound 2 400 mg): 2130 ± 120 ng·h/mL
Cmax ([3]; 400 mg, Compound 2 400 mg): 160 ± 36.7 ng/mL
half-life ([3]; 400 mg, Compound 2 400 mg): 696 ± 72.6 min
AUC ([3]; 600 mg, Compound 2 600 mg): 2180 ± 116 ng·h/mL
Cmax ([3]; 600 mg, Compound 2 600 mg): 198 ± 19.3 ng/mL
concentration at 24 h ([3]; 100 mg, Compound 2 100 mg): 3.6 ± 0.4 ng/mL
concentration at 24 h [3, 9]: 10.9 ± 3.51 ng/mL
concentration at 24 h [3, 11]: 18 ± 8.83 ng/mL
concentration at 24 h ([3]; 400 mg, Compound 2 400 mg): 22.5 ± 3.29 ng/mL
concentration at 24 h ([3]; 600 mg, Compound 2 600 mg): 25.8 ± 4.08 ng/mL
AUC(0-t) [4]: 9640 ng·h/mL
Cmax [4]: 541 ng/mL
Tmax [4]: 6 to 8 h
half-life [4]: 918 min
AUC ([5]; 50 mg): 285 ± 69.4 ng·h/mL
Cmax ([5]; 50 mg): 27.9 ± 5.62 ng/mL
Tmax ([5]; 50 mg): 3.5 h
half-life ([5]; 50 mg): 424 ± 275 min
concentration at 24 h ([5]; 50 mg): 2.28 ± 0.95 ng/mL
AUC ([5]; 100 mg): 663 ± 242 ng·h/mL
Cmax ([5]; 100 mg): 56.6 ± 14 ng/mL
half-life ([5]; 100 mg): 1060 ± 882 min
concentration at 24 h ([5]; 100 mg): 4.45 ± 1.87 ng/mL
AUC ([5]; 200 mg): 1520 ± 497 ng·h/mL
Cmax ([5]; 200 mg): 111 ± 38.8 ng/mL
half-life ([5]; 200 mg): 954 ± 477 min
concentration at 24 h ([5]; 200 mg): 13.7 ± 5.09 ng/mL
AUC ([5]; 400 mg): 2340 ± 598 ng·h/mL
Cmax ([5]; 400 mg): 153 ± 49.4 ng/mL
half-life ([5]; 400 mg): 936 ± 382 min
concentration at 24 h ([5]; 400 mg): 23.5 ± 6.31 ng/mL
AUC(0-t) ([6]; 30 mg/kg): 1620 ng·h/mL
Cmax ([6]; 30 mg/kg): 42.5 ng/mL
Tmax ([6]; 30 mg/kg): 12 to 24 h
half-life ([6]; 30 mg/kg): 690 min
AUC(0-t) ([6]; 100 mg/kg): 3030 ng·h/mL
Cmax ([6]; 100 mg/kg): 131 ng/mL
half-life ([6]; 100 mg/kg): 900 min
AUC(0-t) ([6]; 300 mg/kg): 3660 ng·h/mL
Cmax ([6]; 300 mg/kg): 93.6 ng/mL
Tmax ([6]; 300 mg/kg): 4 to 24 h
half-life ([6]; 300 mg/kg): 1130 min

C[C@@]1(F)[C@H](O)[C@@H](COP(=O)(O)OP(=O)(O)OP(=O)(O)O)O[C@H]1n1cnc2c(=O)[nH]c(N)nc21 [Metabolite 1-6]
Incorporation of active triphosphate by human mitochondrial RNA polymerase [2]: poorlyincorporated
Relative Efficiency ([2]; (Kpol/Kd,app)analog nucleotide/(Kpol/Kd,app)natural nucleotide): 2.2 × 10^−6
Kpol [2, 7]: 0.0017 s⁻¹
Kpol/Kd,app [2, 7]: 8.3e-06 µM⁻¹ s⁻¹
Kd ([2]; incorporation by human mitochondrial RNA polymerase, read-out: Kd,app): 204 µM
